From ChEMBL document CHEMBL1142592, “Additional pyrrolomycins from cultures of Streptomyces fumanus” (2005)
Converted amounts (≈) assume the structure as drawn.

How the values were obtained:
Type in all cases: functional
Staphylococcus aureus [1] = assay: Antimicrobial activity against wild type Staphylococcus aureus by agar dilution method
Enterococcus faecium = assay: Antimicrobial activity against vancomycin-resistant Enterococcus faecium by agar dilution method
Escherichia coli [2] = assay: Antimicrobial activity against wild type Escherichia coli by agar dilution method
Staphylococcus aureus [3] = assay: Antimicrobial activity against methicillin-resistant Staphylococcus aureus by agar dilution method
Escherichia coli [4] = assay: Antimicrobial activity against permeability mutant Escherichia coli imp by agar dilution method

## O=[N+]([O-])c1c([C@@H](O)c2cc(Cl)cc(Cl)c2O)[nH]c(Cl)c1Cl [PYRROLOMYCIN G]
Staphylococcus aureus [1]
  MIC: 8 µg/mL (≈ 21.5 µM)
Enterococcus faecium
  MIC: 8 µg/mL (≈ 21.5 µM)
Escherichia coli [2]
  MIC: > 128 µg/mL
Staphylococcus aureus [3]
  MIC: 8 µg/mL (≈ 21.5 µM)
Escherichia coli [4]
  MIC: 32 µg/mL (≈ 86 µM)

## COc1c(Cl)cc(Cl)cc1C(=O)c1[nH]c(Cl)c(Cl)c1Cl [PYRROLOMYCIN J]
Staphylococcus aureus [1]
  MIC: 1 µg/mL (≈ 2.68 µM)
Escherichia coli [2]
  MIC: > 128 µg/mL
Staphylococcus aureus [3]
  MIC: 2 µg/mL (≈ 5.36 µM)
Escherichia coli [4]
  MIC: 8 µg/mL (≈ 21.4 µM)

## COc1c(Cl)cc(Cl)cc1[C@H](O)c1[nH]c(Cl)c(Cl)c1[N+](=O)[O-] [PYRROLOMYCIN H]
Staphylococcus aureus [1]
  MIC: 1 µg/mL (≈ 2.59 µM)
Escherichia coli [2]
  MIC: 128 µg/mL (≈ 332 µM)
Staphylococcus aureus [3]
  MIC: 2 µg/mL (≈ 5.18 µM)
Escherichia coli [4]
  MIC: 4 µg/mL (≈ 10.4 µM)
